Reference: patent EP2822595B1, “SPHINGOSINE-1 -PHOSPHATE RECEPTORS MODULATORS FOR IMPROVING VACCINE IMMUNIZATION” (Istituto Superiore di Sanità, priority 2012, dated 2013)
Read-outs that look alike come from different tables or passages of the source.

Experiments:
[1] = tested on: TT-specific antibody secreting cells (ASC); assay type: in vivo, BALB/c mice; conditions: bone marrow
[2] = tested on: TT-specific antibody responses; assay type: in vivo, BALB/c mice; conditions: for titre of TT-specific IgA antibodies: one week after the recall dose, vs TT+CT without treatment
[3] = tested on: TT-specific antibody responses; assay type: in vivo, BALB/c mice; conditions: sera
[4] = tested on: TT-specific antibody responses; assay type: in vivo, BALB/c mice; conditions: FTY720 0.5 mg/Kg intragastric 48 and 24 hours before intranasal TT+CT
[5] = tested on: antigen-specific CD4^+ and CD8^+ proliferating cells; assay: CFSE proliferation assay of TT-specific T lymphocytes after systemic (intraperitoneal) immunization; assay type: in vivo, BALB/c mice; conditions: 4 months after the second intraperitoneal immunization, vs non treated, p < 0.05
[6] = tested on: Ova-specific CD4^+ and CD8^+ T lymphocytes; assay type: in vivo, BALB/c mice; conditions: 8 months after the fourth immunization, vs non treated
[7] = tested on: S1P receptors (S1P1, S1P3, S1P4 e S1P5); conditions: 4 of 5 S1P receptors (S1P1, S1P3, S1P4 e S1P5); cited from earlier work
[8] = tested on: antigen-specific CD4^+ and CD8^+ T lymphocytes; assay: CFSE proliferation assay of TT-specific T lymphocytes after intranasal immunization; assay type: in vivo, BALB/c mice
[9] = tested on: patients affected by Multiple Sclerosis; conditions: cited from earlier work
[10] = serum, TT-specific, TT+CT intranasal plus FTY720 vs without, at different analyzed kinetic points
[11] = draining (mediastinal) lymph nodes, two weeks after the fourth immunization, vs immunized non treated mice, p < 0.05
[12] = draining lymph nodes, 8 months after the fourth immunization, one week after one recall dose, vs non treated, p < 0.05
[13] = spleen, 8 months after the fourth immunization, after one recall dose, vs non treated
[14] = spleen, two weeks after the fourth immunization, treated vs non treated
[15] = oral, 0.5 and 1.25 mg a day, phase III clinical trials

For `CCCCCCCCc1ccc(CCC(N)(CO)CO)cc1.Cl` [FTY720, 2-amino-2-(2-(4-octylphenyl)ethyl)propane-1,3-diol hydrochloride], the “number of anti-TT IgG ASC” value ([1]; two weeks after the fourth immunization, immunized and not treated mice: 60) was 115 ASC/1×10^6 of cells, the “number of anti-TT IgA ASC” value ([1]; two weeks after the fourth immunization, non treated: 40) was 80 ASC/1×10^6 of cells and the “number of anti-TT IgG ASC” value ([1]; two weeks after the recall dose (4 months after fourth immunization), non treated: 123) was 240 ASC/1×10^6 of cells. For the same compound, the “number of anti-TT IgA ASC” value ([1]; two weeks after the recall dose, non treated: 58) was 136 ASC/1×10^6 of cells, the “titre of TT-specific IgA antibodies” value ([2]; saliva) was “higher titres” and the “titre of IgG1 subclass” value [2, 10] was “Increase of the titre”. For the same compound, the “titre of IgG2a subclass” value [2, 10] was “Increase of the titre”, the “anti-TT IgG antibody titre” value ([2]; serum, four months after the fourth immunization (pre-boost), vs immunized mice without treatment) was “maintained at higher levels” and the “IgG antibodies specific for the TT” value ([2]; serum, one week after boost given four months after the fourth immunization, vs immunized mice without treatment) was “higher levels”. For the same compound, the “anti-tetanus IgG antibody titre” value ([2]; serum, one week after the fourth intranasal immunization, TT+CT plus FTY720 (761) vs TT+CT without treatment (304), apparently times over TT only) was 761, the “anti-tetanus IgG antibody titre” value ([2]; serum, one week after the second intranasal immunization with TT+CT, FTY720 0.5 mg/Kg intragastric the day after first and second immunization, TT+CT without treatment: 54 times) was 305 times with respect to the titre of mice which received only TT and the “anti-tetanus IgG antibody titre” value ([2]; serum, one week after the third intranasal immunization, TT+CT plus FTY720 vs TT+CT without treatment) was “increase”. For the same compound, the “titre of TT-specific IgA antibodies” value ([2]; vaginal washes (VW)) was “higher titres”, the “titre of anti-tetanus IgG antibodies, differences between the two groups” value ([3]; one month after the second intraperitoneal immunization, treated vs non treated, differences decreased) was “still detectable” and the “titre of anti-tetanus IgG antibodies” value ([3]; one week after the first intraperitoneal immunization with TT+CT, FTY720 0.5 mg/Kg intragastrically the day after immunization, TT+CT without treatment: 63 times) was 203 times with respect to the titre of mice immunized only with TT. For the same compound, the “titre of anti-tetanus IgG antibodies” value ([3]; one week after the second intraperitoneal immunization, TT+CT plus FTY720 (575) vs TT+CT without treatment (152), apparently times over TT only) was 575, the “titre of anti-tetanus IgG antibodies” value ([4]; one week after the second immunization, data not showed) was “only the titre of anti-tetanus IgG antibodies in mice immunized with TT and CT was appreciable” and the “titre of IgG antibody specific for the TT” value ([4]; one week after the third immunization) was “higher in mice immunized with TT and CT in the absence of treatment”. For the same compound, the “percentage of antigen-specific CD4^+ proliferating cells” value ([5]; lymph nodes) was “higher percentage”, the “percentage of antigen-specific CD8^+ proliferating cells” value ([5]; lymph nodes) was “higher percentage” and the “percentage of antigen-specific CD4^+ proliferating cells” value ([5]; spleen) was “higher percentage”. The “percentage of antigen-specific CD8^+ proliferating cells” value ([5]; spleen) was “higher percentage”, the “percentage of Ova-specific CD4^+ T lymphocytes” value ([6]; draining lymph nodes) was “higher percentage” and the “percentage of Ova-specific CD8^+ T lymphocytes” value ([6]; draining lymph nodes) was “higher percentage”. The “percentage of Ova-specific CD4^+ T lymphocytes” value ([6]; spleen) was “higher percentage”, the “percentage of Ova-specific CD8^+ T lymphocytes” value ([6]; spleen) was “higher percentage” and the “agonist activity at S1P receptors” value [7] was “strong agonist”. For the same compound, the “proliferation of antigen-specific CD4^+ T lymphocytes” value [8, 11] was “significantly higher”, the “proliferation of antigen-specific CD8^+ T lymphocytes” value [8, 11] was “significantly higher” and the “proliferation of antigen-specific CD4^+ T lymphocytes” value [8, 12] was “higher”. For the same compound, the “proliferation of antigen-specific CD8^+ T lymphocytes” value [8, 12] was “higher”, the “percentage of antigen-specific CD4^+ T lymphocytes” value [8, 13] was “higher percentage” and the “percentage of antigen-specific CD8^+ T lymphocytes” value [8, 13] was “higher percentage”. The “proliferation of antigen-specific CD4^+ T lymphocytes” value [8, 14] was “comparable”, the “proliferation of antigen-specific CD8^+ T lymphocytes” value [8, 14] was “comparable” and the infectious complications ([9]; mainly in patients who received the higher dose (1.25 mg a day)) was “some infectious complications”. For the same compound, the “effectiveness in Multiple Sclerosis patients” value [9, 15] was “effective” and the “tolerability in Multiple Sclerosis patients” value [9, 15] was “well tolerated”.
